{
  "source": "patent US20050070602A1",
  "about": "“Method of modulating immune response by administration of immuno-activation agent” (priority 2003, published 2005)",
  "key": {"xenografted PC-3 tumors [1]": {"tested_on": "xenografted PC-3 tumors", "test": "Histology and immunohistochemical staining of xenografted tumor tissue for immune cells and bound mouse Ig", "assay_type": "in vivo, mice", "description": "(§1) Five week-old BALB/c (nu/nu) male mice purchased from Charles River Laboratories (Wilmington, Mass.) were housed in a barrier facility with 12-h light/dark cycles; tap water and diets provided ad libitum. They were randomly divided into two groups of nine mice. […] The diets began one week prior to inoculation of PC-3 cells and continued until termination of experiments. The xenografted tumors were established by a single s.c. injection in the flank of 0.8×10^6 PC-3 cells suspended in ice-cold matrigel (sigma). The tumor volumes were measured every 7-8 days and calculated by length×width×height×0.5236. Animal body weights were recorded weekly and at autopsy; food consumption was determined twice per week. Two hours before the mice were euthanized, 5-bromo-2′-deoxyuridine (BrdU) (10 mg/kg body weight) was injected in the peritoneum for in vivo labeling of proliferating cells. At autopsy, xenograft tumors were weighed and frozen in liquid nitrogen or fixed in 10% formalin and embedded in paraffin. The BrdU-labeled cells of paraffin embedded tissues on slides were detected employing a monoclonal anti-BrdU antibody from a BrdU detection kit (Roche Molecular Biochemicals) according to manufacturer's direction. The mean numbers of labeled cells from multiple fields were calculated. The comparisons between control and experimental groups were performed with Student's t test.\nThe changes of B and NK cells were further examined in the-frozen and paraffin embedded xenografted tumor tissues by for immunohistochemical staining. Mouse B cells were identified with a primary monoclonal rat anti-B220 antibody, and NK cells of immunodeficient mice detected with a rat anti-mouse CD90.2 (18) primary antibody (BD PharMingen). A biotin-conjugated goat anti-rat Ig was used as a secondary antibody, with chromogen color development using an ImmunoCruz Staining System (Santa Cruz Biotechnology). A rat IgG2aK was used as an isotype control. The binding of mouse Ig to xenografted tumor cells was determined by a direct antibody staining method using a biotinylated goat anti-mouse Ig (BD PhaMingen), or an isotype Ig control."}, "PC-3 cells": {"tested_on": "PC-3 cells", "test": "Cell cycle phases of cultured PC-3 cells by flow cytometry", "assay_type": "cell-based, human", "settings": "exposure for 24 hours in cultures", "method": "The product was crystallized from hexane, and purity established by HPLC, NMR and MS; purity was greater than 98%. A human prostate cancer cell line, androgen-independent PC-3 was used as antigen in this invention. PC-3 cells were seeded at 1.5×10^5 cells/ml in RPMI-1640 containing 15% heat inactivated fetal calf serum with 1% penicillin (10,000 units/ml) and streptomycin (10,000 μg/ml) (15). Cell cycle phase determination was performed using a BD FACScan cytometer according to published procedures (16, 17). The cells were fixed with 80% ethanol at 4° C. and incubated on ice before the DNA was stained with propidium iodide (50 μg/ml)."}, "[2]": {"tested_on": "human prostate cancer PC-3 cells", "test": "Xenograft tumor assay, PC-3 cells in BALB/c (nu/nu) mice", "assay_type": "in vivo", "description": "as §1"}, "cyclin D1": {"tested_on": "cyclin D1", "test": "Western blot of xenografted tumors: cyclin D1", "assay_type": "in vivo, human", "settings": "pooled experimental tumors vs controls", "method": "(§2) The protein levels of xenografts were determined by Western blot analyses using standard procedures (19). Total proteins were prepared from each group of pooled individual xenografts of equal weight. The tissues were homogenized in the presence of a lysis buffer with protease inhibitors (17) and lysates collected after centrifugation at 4° C. Polyclonal antibodies against human p21^WAF-1/Cip-1, p27^Kip1, cyclin E, and an anti-cyclin D1 cross reactive with cyclins D2 and D3, an anti-Rb reactive with both phosphorylated and non-phosphorylated proteins, and an antibody against intact poly (ADP-ribose) polymerase (PARP) and the 89 kDa fragment were purchased from Santa Cruz Biotechnology. Preferably the endogenous cyclin-dependent kinase inhibitors are p151NK4B, p161NK4A, p181NK4C, p191NK4D, p21WAF-1/Cip-1, p27Kip1 and/or p57 that inhibit cyclin-dependent kinases."}, "Rb": {"tested_on": "Rb", "test": "Western blot of xenografted tumors: Rb phosphorylation", "assay_type": "in vivo, human", "settings": "experimental tumors vs controls", "method": "as §2"}, "[3]": {"tested_on": "B cells and NK cells in the peripheral blood", "test": "B and NK cells in peripheral blood by direct fluorescent antibody flow cytometry", "assay_type": "in vivo, mice", "description": "as §1\nMonoclonal antibodies against mouse B cell antigen CD19 or against Pan NK cell antigen CD49b were used. A mouse isotype control was used as a background.\nThe quantities of B cells and NK cells in the peripheral blood of all mice were determined by direct immunofluorescent antibody technique with the flow cytometric method. Monoclonal antibodies against mouse B cell antigen CD19 or against mouse Pan NK cell antigen CD49b were used."}, "[4]": {"tested_on": "PARP (poly (ADP-ribose) polymerase)", "test": "Western blot of PARP cleavage in xenografted tumors", "assay_type": "in vivo, human", "settings": "pooled experimental tumors vs control", "method": "as §2"}, "[5]": {"description": "as §1"}, "xenografted PC-3 tumors [6]": {"tested_on": "xenografted PC-3 tumors", "test": "Proliferating (BrdU-labeled) and mitotic cells in xenografted tumors", "assay_type": "in vivo, mice", "description": "as §1"}, "prostate cancer cells": {"tested_on": "prostate cancer cells", "settings": "earlier report (ref. 12); cited from earlier work"}, "xenografted PC-3 tumors [7]": {"tested_on": "xenografted PC-3 tumors", "test": "Apoptotic cells in xenografted tumors by TUNEL", "assay_type": "in vivo, mice", "settings": "nine weeks PEITC-NAC diet", "method": "The apoptotic cells of xenografted tumors were determined with paraffin embedded tissue slides by the characteristic nucleus morphology, and by the presence of DNA strand breaks using the terminal deoxynucleotidyl tranferase-mediated biotinylated UTP nick end labeling (TUNEL). An in situ detection kit from Roche Molecular Biochemicals, Indianapolis, Ind. was employed according to manufacturer's direction (17). Multiple fields, but not necrotic tissues, were determined for apoptotic cells."}, "PC-3 cell antigens": {"tested_on": "PC-3 cell antigens", "test": "Serum antibodies against cultured PC-3 cells, indirect immunofluorescence with flow cytometry", "assay_type": "in vivo, mice", "method": "The reaction of serum antibodies from mice on the experimental or control diet with cultured PC-3 cells was analyzed with an indirect immunofluorescent antibody technique. A fluoresecin-labeled goat IgG-(Fab′)2 antibody against mouse Ig was used as the second antibody. PC-3 cells stained with a nonspecific mouse IgG as the first antibody were used as a background. The proportion of the positively stained cells and the mean fluorescence intensity were analyzed with the intensity channel on a flow cytometer.\nMouse sera were incubated with cultured PC-3 cells to detect the presence and reactivity of antibodies against PC-3 antigens using an indirect immunofluorescent antibody technique. The proportion of the positively stained cells and the mean fluorescence intensity were analyzed by a flow cytometric method. […] For example, at the titer of 20, the antisera from mice on experimental diet detected approximately 24-38% cells while approximately 7-16% cells detected with the sera from mice on the control diet."}},
  "note": "Values joined by “and” are separate entries in the source; they are usually repeats but may differ in a detail not shown here. Identical values can stand only once.",
  "data": [
    {"compound": "CC(=O)N[C@@H](CSC(=S)NCCc1ccccc1)C(=O)O", "note": "[PEITC-NAC, N-acetylcysteine conjugate of phenethyl isothiocyanate]", "values": [
      {"measurement": "lymphocytes around tumor nodules", "setting": "xenografted PC-3 tumors [1]; H & E sections, after nine weeks of PEITC-NAC diet, not in control mice", "result": "surrounded by aggregates of small lymphocytes"},
      {"measurement": "NK cell receptor NKG2A/C/E among infiltrating cells", "setting": "xenografted PC-3 tumors [1]; immunohistochemical staining, PEITC-NAC treated mice", "result": "demonstrated among cells infiltrating around the tumor nodules"},
      {"measurement": "B220 staining of lymphocytes around tumor nodules", "setting": "xenografted PC-3 tumors [1]; immunohistochemical staining, experimental tumors", "result": "great majority of them were B cells bearing marker B220"},
      {"measurement": "CD90.2 staining of lymphocytes around tumor nodules", "setting": "xenografted PC-3 tumors [1]; immunohistochemical staining, marker for T and NK cells", "result": "Small quantity of lymphocytes stained positive for CD90.2"},
      {"measurement": "mouse immunoglobulins bound to xenografted tumor cells", "setting": "xenografted PC-3 tumors [1]; immunoperoxidase staining, experimental but not control tumors", "result": "bound mouse immunoglobulins"},
      {"measurement": "cell cycle phases of PC-3 cells", "setting": "PC-3 cells", "result": "concentration-related reduction of S- and G2M-phases"},
      {"measurement": "tumor incidence", "setting": "[2]; PEITC-NAC diet 8 μmol/g, control 100%", "result": 88, "unit": "%"},
      {"measurement": "time for tumors to be palpable", "setting": "[2]; after inoculation of PC-3 cells, PEITC-NAC diet 8 μmol/g, control 7-10 days", "result": "7 to 22", "unit": "days"},
      {"measurement": "tumor volumes vs control tumors", "setting": "[2]; during study period, P<0.05", "result": "smaller"},
      {"measurement": "mice with tumor inhibition", "setting": "[2]; mice fed with PEITC-NAC diet", "result": 100, "unit": "%"},
      {"measurement": "reduced expression of cyclin D1", "setting": "cyclin D1", "result": 32, "unit": "%"},
      {"measurement": "Rb phosphorylation", "setting": "Rb", "result": "significant reduction of Rb phosphorylation"},
      {"measurement": "Mean of NK Cells (%), average of experimental mice", "setting": "[3]; average of 3 experimental mice, control average 24.4, PEITC-NAC diet 8 μmol/g", "result": 30.5, "unit": "%"},
      {"measurement": "Mean of B Cells (%), average of experimental mice", "setting": "[3]; average of 3 experimental mice, control average 30.5, PEITC-NAC diet 8 μmol/g", "result": 42.0, "unit": "%"},
      {"measurement": "Mean of B Cells (%)", "setting": "[3]; individual experimental mice, peripheral blood, CD19, % of total mononuclear cells, PEITC-NAC diet 8 μmol/g of AIN-76A, 30 days, PC-3 xenografted nude mice", "result": "45.8% and 42.1% and 38.3%"},
      {"measurement": "Mean of NK Cells (%)", "setting": "[3]; individual experimental mice, peripheral blood, CD49b, % of total mononuclear cells, PEITC-NAC diet 8 μmol/g of AIN-76A, 30 days, PC-3 xenografted nude mice", "result": "27.6% and 38.0% and 26.0%"},
      {"measurement": "cleaved PARP fragments incl. 89 kDa fragment", "setting": "[4]", "result": "Significant increase of the cleaved fragments"},
      {"measurement": "daily food consumption, less than control mice", "setting": "[5]; PEITC-NAC diet", "result": "approximately 6.5%"},
      {"measurement": "average weights of kidneys and spleens vs controls", "setting": "[5]; at autopsy, P>0.13", "result": "the difference was not significant"},
      {"measurement": "average body weight at termination", "setting": "[5]; experimental mice, control mice 21.89 g", "result": 20.93, "unit": "g"},
      {"measurement": "behavior of animals", "setting": "[5]; throughout the study period, PEITC-NAC diet", "result": "no signs of unusual behavior"},
      {"measurement": "proliferating cells, less than in control mice", "setting": "xenografted PC-3 tumors [6]; BrdU labeling, tumors at autopsy", "result": "approximately 75%"},
      {"measurement": "mitotic figures", "setting": "xenografted PC-3 tumors [6]; tumors from PEITC-NAC fed mice, control greater than five per field", "result": "three"},
      {"measurement": "growth of prostate cancer cells in cultures", "setting": "prostate cancer cells", "result": "significantly inhibited"},
      {"measurement": "elevation of apoptotic rate vs control tumors", "setting": "xenografted PC-3 tumors [7]", "result": "approximately two"},
      {"measurement": "average apoptotic rate of tumors", "setting": "xenografted PC-3 tumors [7]; control 14.4%, P=0.02", "result": 29.29, "unit": "%"},
      {"measurement": "antisera titer against PC-3 cell antigens", "setting": "PC-3 cell antigens; 6 weeks after injection of PC-3 cells, vs basal control diet", "result": "higher titer"},
      {"measurement": "mean fluorescence on stained PC-3 cells", "setting": "PC-3 cell antigens; antisera from experimental diet mice vs control mice sera", "result": "significantly more intense"},
      {"measurement": "PC-3 cells detected by antisera", "setting": "PC-3 cell antigens; serum titer of 20, mice on experimental diet, control diet 7-16%", "result": "24-38%"}
    ]}
  ]
}
